We go through 72 compounds from the SangsterLogP compilation.

A word on the logP: it is a log measure of how a compound divides between an organic and an aqueous phase. A word on the logD: it is the decadic logarithm of the distribution of all forms, ionised or not, between an organic phase and buffer at a given pH. Higher therefore signals a more lipophilic compound.

Experiment in the first data set: not given
Settings: not given
On to `CCCNc1ccc(C(=O)OCCN(C)C)cc1`, for which the logP stood at 3.15. The same measure, in the same setting: under `CCCCCNc1ccc(C(=O)OCCN(C)C)cc1` stands 4.14; under `CNc1ccc(C(=O)OCCN(C)C)cc1`, 1.95.

Experiment in a further data set: not given
Particulars: pH 7.4.
With `CSC[S@](=O)C[C@H](C)NC(=O)/C=C/c1c(C)[nH]c(=O)[nH]c1=O`, the logD is -0.7.

In the case of `CSC[S@](=O)C[C@H](CO)NC(=O)/C=C/c1c(C)[nH]c(=O)[nH]c1=O`, the pH-dependent lipophilicity (logD) is -1.71. Turning to `CCCCCSCS(=O)CC(CO)NC(=O)/C=C/c1c(C)[nH]c(=O)[nH]c1=O` (configuration not stated), the logD was 0.6.

Experiment in a further data set: not given
Settings: not given
This is another data set of the same source.
On to `CCCCc1oc2ccccc2c1C(=O)c1ccc(O)cc1`, for which the logP was 4.87.

In turn, `O=C(c1ccc(O)cc1)c1ccc(Cl)cc1` came in with a log partition coefficient (logP) of 4. In turn, `CCCCc1oc2ccccc2c1C(=O)c1cc(I)c(O)c(I)c1` returned a logP of 5.92.

Experiment in another data set: not given
Settings: not given
The source holds these as a separate data set.
Take `CCCSP(=S)(OCC)Oc1ccc(SC)cc1` (configuration not stated): the logP turned out to be 4.9. `CCOP(=O)(NC(C)CC)Oc1cc(C)ccc1[N+](=O)[O-]` (configuration not stated) showed a logP of 2.73. For `CCOP(=S)(NC(C)CC)Oc1cc(C)ccc1[N+](=O)[O-]` (configuration not stated), the logP came to 4.62.

Experiment in another data set: not given
Settings: not given
The source holds these as a separate data set.
On to `Cc1c(N=C2NCCN2)ccc2nccnc12`, for which the logP was found to be 0.9. As to `Cc1c(N=C2NCCN2)ccc2c1NCCN2`, the logP was 0.04. For `Cc1c(N=C2NCCN2)ccc2c1NCCO2`, the logP was found to be 0.35.

Experiment in the next data set: not given
Settings: not given
This is another data set of the same source.
For `c1ccc2c(c1)Cc1cc3ccccc3cc1-2`, the logP turned out to be 5.75.

In turn, `Cc1cccc2c1Cc1ccccc1-2` showed a logP of 4.97. The same measure, in the same setting: the result for `Cc1c2ccccc2c(C)c2ccccc12` reads 5.25.

Experiment in another data set: not given
Settings: not given
This is another data set of the same source.
Consider `COc1ccc(Cc2nccc3cc(OC)c(OC)cc23)cc1OC`, for which the logP came to 2.95.

The compound `Cc1ccc(Cl)c(Nc2ccccc2C(=O)O)c1Cl` yielded a logP of 5.9. As to `CCN(CC)Cc1cc(Nc2ccnc3cc(Cl)ccc23)ccc1O`, the logP was 4.2.

A further data set can be described thus: method code SF-HPLC, from DOI: 10.1039/a702469j. The conditions noted are these: pH 7.0.
Regarding `CCOP(=O)(OCC)C(C)(C)[N+]([O-])=Cc1ccncc1`, the logD was 0.32. As to `CCOP(=O)(OCC)C(C)(C)[N+]([O-])=Cc1cc[n+]([O-])cc1`, the logD is -0.68. As to `CCOP(=O)(OCC)C(C)(C)[N+]([O-])=Cc1cccnc1`, the logD came to 0.41.

Another data set in a line: method code SF-AS, from DOI: 10.1002/etc.5620180606.
Settings: not given
`Nc1c(Oc2ccc(CN3CCCCCC3=O)cc2)cc(O)c2c1C(=O)c1ccccc1C2=O` displayed a logP of 5.3. The compound `Nc1c(Cl)c(Cl)c(N)c2c1C(=O)c1ccccc1C2=O` gave a logP of 4.56. `N#CCN(CCO)c1ccc(N=Nc2nc3ccc([N+](=O)[O-])cc3s2)cc1` displayed a logP of 4.08.

A further data set is described as follows: method code SF-AS, from DOI: 10.1016/0045-6535(95)00267-c.
Settings: not given
The compound `COc1ccc(Oc2ccc(NC(=O)N(C)C)cc2)cc1` returned a logP of 2.54. `CCCCN(C)C(=O)Nc1ccc(Cl)c(Cl)c1`: the logP was 4.1.

`CC1CCCCC1NC(=O)Nc1ccccc1` (configuration not stated) yielded a logP of 3.09.

Another data set can be described thus: method code SF-AS, from DOI: 10.1016/0378-5173(84)90231-x.
Settings: not given
For `COc1ccc(C=[N+]([O-])C(C)(C)C)cc1`, the logP is 1.21. In turn, `CCc1ccc(C=[N+]([O-])C(C)(C)C)cc1` had a logP of 2.19. The compound `Cc1ccc(C=[N+]([O-])C(C)(C)C)cc1` gave a logP of 1.74.

The nature of a further data set: method code SF-GLC, from DOI: 10.1016/0048-3575(76)90072-9.
Settings: not given
For the compound `CCOC(=O)CN(C(=O)CCl)c1ccccc1-c1ccccc1`, the logP came out at 3.37.

Compound `CCOC(=O)CN(C(=O)CCl)c1ccccc1OC(C)C` gave a logP of 2.75. For `CCOC(=O)CN(C(=O)CCl)c1ccccc1`, the logP was found to be 1.6.

A further data set in a line: method code SF-HPLC, from DOI: 10.1016/0378-5173(89)90028-8.
Settings: not given
`CCn1cc(C(=O)OC)c(=O)c2ccc(C)nc21` had a logP of 1.23. The same measure, in the same setting: under `CCCC(=O)OCOC(=O)c1cn(CC)c2nc(C)ccc2c1=O` stands 2.2. Same read-out and setting: the result for `CCN(CC)C(=O)COC(=O)c1cn(CC)c2nc(C)ccc2c1=O` reads 1.43.

A short description of a further data set: method code SF, from DOI: 10.1021/jm00237a002, PMID: 1133810. Particulars: pH 7.2.
Compound `CCCCOc1cnc(NS(=O)(=O)c2ccccc2)nc1` displayed a logD of 1.41. Compound `CC(C)Oc1cnc(NS(=O)(=O)c2ccccc2)nc1` returned a logD of 0.86. Same read-out and setting: the result for `CCCOc1cnc(NS(=O)(=O)c2ccccc2)nc1` reads 1.14.

The nature of another data set: method code SF-AS, from DOI: 10.1021/jm00296a014, PMID: 5418493.
Settings: not given
Take `O=C(O)C1c2ccccc2Oc2ccccc21`: the lipophilicity (logP) was determined as 2.23. In turn, `O=C(O)C1c2ccccc2-c2ccccc21` displayed a logP of 2.8. The same measure, in the same setting: the result for `O=C(O)C1c2ccccc2Sc2ccccc21` reads 2.57.

The nature of another data set: method code SF-AS, from DOI: 10.1248/cpb.32.5003, PMID: 6534549.
Settings: not given
In turn, `Nc1ccccc1NC(=O)Cc1ccccc1` returned a lipophilicity (logP) of 1.45. `O=C(Cc1ccccc1)Nc1ccccc1[N+](=O)[O-]` displayed a logP of 2.73.

The compound `COc1ccccc1NC(=O)Cc1ccccc1` returned a lipophilicity (logP) of 2.68.

The nature of the next data set: method code SF-HPLC, from DOI: 10.1002/jps.10072, PMID: 11920751. The conditions noted are these: pH 7.4.
On to `CCCC(=O)OCC(CO)OCn1cnc2c(=O)[nH]c(N)nc21` (configuration not stated), for which the logD is -0.3. Same read-out and setting: the result for `CCCCC(=O)OCC(COC(=O)CCCC)OCn1cnc2c(=O)[nH]c(N)nc21` reads 0.83. Take `CC(=O)OCC(COC(C)=O)OCn1cnc2c(=O)[nH]c(N)nc21`: the logD is -0.78.

The nature of another data set: method code SF-AS, from DOI: 10.1139/cjpp-75-12-1362, PMID: 9534947.
Settings: not given
`Nc1ccc(C(=O)N/N=C/c2c(O)ccc3ccccc23)cc1` yielded a logP of 3.04. The compound `Cc1ncc(CO)c(/C=N/NC(=O)c2ccco2)c1O` registered a lipophilicity (logP) of 1.39. As to `O=C(N/N=C/c1c(O)ccc2ccccc12)c1cccc(F)c1`, the logP came to 4.06.

The nature of another data set: method code SF-HPLC, from DOI: 10.1023/a:1015862319927, PMID: 2062808. The conditions noted are these: pH 7.4.
As to `O=C(OC[C@H]1O[C@@H](n2cc(I)c(=O)[nH]c2=O)C[C@@H]1O)c1ccc([N+](=O)[O-])cc1`, the logD is 1.24. On to `CC(C)C(=O)OCC1OC(n2cc(I)c(=O)[nH]c2=O)C1O` (configuration not stated), for which the logD was 0.83.

For `COc1ccc(C(=O)OCC2OC(n3cc(I)c(=O)[nH]c3=O)CC2O)cc1` (configuration not stated), the log distribution coefficient (logD) was 1.38.

The next data set in a line: method code SF-HPLC, from DOI: 10.1016/j.ejpb.2013.06.022, PMID: 23958327. Particulars: pH 6.0.
As to `Cc1cc(C2CCCCC2)n(O)c(=O)c1`, the logD turned out to be 2.3. The compound `CCOC(=O)c1ccc(C#Cc2ccc3c(c2)C(C)(C)CCS3)nc1` showed a logD of 5.6. As to `CCOC(=O)O[C@]1(C(=O)COC(=O)CC)CC[C@H]2[C@@H]3CCC4=CC(=O)C=C[C@]4(C)[C@H]3[C@@H](O)C[C@@]21C`, the pH-dependent lipophilicity (logD) is 2.9.

A further data set in a line: method code SF-RC, from DOI: 10.1016/s0969-8051(02)00326-8, PMID: 12234587. The conditions noted are these: pH 7.4.
With `CN(C)c1ccc(-c2cc3cc(I)ccc3o2)cc1`, the logD amounted to 2.35.

`Oc1ccc(-c2cc3cc(I)ccc3o2)cc1` gave a logD of 2.97. `CN(C)c1ccc(-c2cc3ccc(I)cc3o2)cc1` returned a logD of 2.12.

The next data set can be described thus: method code SF-GLC, from DOI: 10.1016/j.chemosphere.2013.04.065, PMID: 23732011.
Settings: not given
`C=CCOc1ccc(OCCC)cc1` showed a logP of 2.4. `C=CCOc1cccc(OCC=C)c1` yielded a logP of 3.8. Compound `C=CCOc1ccc(OCC=C)cc1` had a logP of 3.5.

The next data set is described as follows: method code SF-RC, from Godoy, N.; Valle, L.; Mena, P.; Gil, M. (1989). Synthesis, labeling and biodistribution of 99mTc-labelled bromoimino diacetic acids. Nucleotecnica, 9(17)25-32.
Settings: not given
In turn, `Cc1ccc(Br)c(C)c1NC(=O)CN(CC(=O)O)CC(=O)O` showed a logP of 0.28.

`CCCCc1ccc(NC(=O)CN(CC(=O)O)CC(=O)O)cc1Br`: the lipophilicity (logP) was -0.1. `Cc1cc(C)c(NC(=O)CN(CC(=O)O)CC(=O)O)c(C)c1Br`: the logP was -0.11.

A short description of a further data set: method code SF-AS, from Dallet, P.; Dubost, J.; Colleter, J.; Audry, E.; Creuzet, M. (1985). QSAR in a series of alpha-adrenolitic molecules: optimization of physicochemical parameters. Eur J Med Chem, 20(6)551-557.
Settings: not given
For `Cc1cc(OCCN(C)C)c(C(C)C)cc1OS(=O)(=O)CC12CCC(CC1=O)C2(C)C` (configuration not stated), the logP is 4.37. `CC(=O)Oc1ccc(OCCN(C)C)cc1C` displayed a logP of 1.64.

`Cc1cc(OCCNCC2CC(=O)c3ccccc3C2=O)c(C(C)C)cc1O` (configuration not stated) registered a lipophilicity (logP) of 4.25.
